Tests used:
[1] = system: Saccharomyces cerevisiae; experiment: Inhibition of baker's yeast alpha-glucosidase at 300 uM using p-nitrophenyl alpha-D-glucopyranoside as substrate preincubated for 15 mins followed by substrate addition measured for 20 mins by spectrophotometric analysis relative to control
[2] = Inhibition of baker's yeast alpha-glucosidase using p-nitrophenyl alpha-D-glucopyranoside as substrate preincubated for 15 mins followed by substrate addition measured for 20 mins by spectrophotometric analysis; parameters: species or system Saccharomyces cerevisiae

inhibition [1]	IC50 [2]	Structure (SMILES)
89.1%	5270 nM	O=[N+]([O-])c1ccc2nc(-c3nc4ccc([N+](=O)[O-])cc4n3Cc3nnc(Nc4ccccc4)s3)n(Cc3nnc(Nc4ccccc4)s3)c2c1
23.7%		O=[N+]([O-])c1ccc2nc(-c3nc4ccc([N+](=O)[O-])cc4n3Cc3nnc(S)n3-c3ccccc3)n(Cc3nnc(S)n3-c3ccccc3)c2c1
35.8%		O=[N+]([O-])c1ccc2nc(-c3nc4ccc([N+](=O)[O-])cc4n3Cc3nnc(S)n3Cc3ccccc3)n(Cc3nnc(S)n3Cc3ccccc3)c2c1
48.4%		O=[N+]([O-])c1ccc2nc(-c3nc4ccc([N+](=O)[O-])cc4n3Cc3nnc(NCc4ccccc4)s3)n(Cc3nnc(NCc4ccccc4)s3)c2c1
85.8%	6690 nM	CCOC(=O)Cn1c(-c2nc3ccc([N+](=O)[O-])cc3n2CC(=O)OCC)nc2ccc([N+](=O)[O-])cc21
100%	440 nM	NNC(=O)Cn1c(-c2nc3ccc([N+](=O)[O-])cc3n2CC(=O)NN)nc2ccc([N+](=O)[O-])cc21
39.6%		O=C(Cn1c(-c2nc3ccccc3n2CC(=O)NNC(=S)Nc2ccccc2)nc2ccccc21)NNC(=S)Nc1ccccc1
23.2%		O=C(Cn1c(-c2nc3ccccc3n2CC(=O)NNC(=S)NCc2ccccc2)nc2ccccc21)NNC(=S)NCc1ccccc1
42.7%		c1ccc(Nc2nnc(Cn3c(-c4nc5ccccc5n4Cc4nnc(Nc5ccccc5)s4)nc4ccccc43)s2)cc1
100%	1240 nM	O=C(Cn1c(-c2nc3ccc([N+](=O)[O-])cc3n2CC(=O)NNC(=S)Nc2ccccc2)nc2ccc([N+](=O)[O-])cc21)NNC(=S)Nc1ccccc1
45.8%		NNC(=O)Cn1c(-c2nc3ccccc3n2CC(=O)NN)nc2ccccc21
100%	490 nM	O=C(Cn1c(-c2nc3ccc([N+](=O)[O-])cc3n2CC(=O)NNC(=S)NCc2ccccc2)nc2ccc([N+](=O)[O-])cc21)NNC(=S)NCc1ccccc1
83.3%	13300 nM	C[C@H]1O[C@H](O[C@H]2[C@H](O)[C@@H](O)[C@@H](O[C@H]3[C@H](O)[C@@H](O)C(O)O[C@@H]3CO)O[C@@H]2CO)[C@H](O)[C@@H](O)[C@@H]1N[C@H]1C=C(CO)[C@@H](O)[C@H](O)[C@H]1O (stereo partly drawn) [ACARBOSE]
100%	3010 nM	Sc1nnc(Cn2c(-c3nc4ccccc4n3Cc3nnc(S)n3-c3ccccc3)nc3ccccc32)n1-c1ccccc1

Structure (SMILES)	inhibition [1]	IC50 [2]
O=[N+]([O-])c1ccc2nc(-c3nc4ccc([N+](=O)[O-])cc4[nH]3)[nH]c2c1	100%	540 nM
